# Where a name gives a salt, the structure may show the parent alone. Read-outs that look alike come from different tables or passages of the source.
# Tests used:
# PIM-1 = PIM-1 (Homo sapiens (Human), UniProt P11309); experiment: PIM-1 Enzyme Assay; type: biochemical
# Experimental: The amount of radiolabeled product is then measured by liquid scintillation counting. The final buffer conditions were as follows: 20 mM K^+MOPS, pH 7.4, 10 mM MgCl2, 0.005% Tween-20, 1 mM DTT. […] Incubations were carried out for 60 min at 22° C. and quenched with 75 μL of 200 mM H3PO4, filtered through a Whatman P81 plate and washed (1×200 μL and 5×100 μL ) with 200 mM H3PO4. Liquid scintillation cocktail (50 μL ) was then added per well, and the plate was counted for 30 s/well using a TopCount NXT.
# One-μL aliquots of these were then transferred to the assay mixtures above to give a final concentration of DMSO of 2%. […] For each plate, percent of control (POC) values were calculated for each well. IC50's were estimated from the POC's using a standard 4-parameter logistic model. The IC50 is defined as the concentration of inhibitor at which the POC equals 50 for the fitted curve.
# [1] = target: GST-tagged recombinant full-length human PIM-2 (Homo sapiens (Human), UniProt Q9P1W9); experiment: PIM-2 Enzyme Assay
# recombinant rat PIM-3 = recombinant rat PIM-3 (Rattus norvegicus (Rat), UniProt O70444); experiment: PIM-3 Enzyme Assay; conditions: 30 μM ATP, 0.5 nM PIM-3
# [2] = read-out: PIM-2 IC50, 4 μM ATP, […] PIM-2
# [3] = PIM-2 IC50 (nM), 4 μM ATP, […] PIM-2
# Sequence of GST-tagged recombinant full-length human PIM-2 (Q9P1W9 whole entry): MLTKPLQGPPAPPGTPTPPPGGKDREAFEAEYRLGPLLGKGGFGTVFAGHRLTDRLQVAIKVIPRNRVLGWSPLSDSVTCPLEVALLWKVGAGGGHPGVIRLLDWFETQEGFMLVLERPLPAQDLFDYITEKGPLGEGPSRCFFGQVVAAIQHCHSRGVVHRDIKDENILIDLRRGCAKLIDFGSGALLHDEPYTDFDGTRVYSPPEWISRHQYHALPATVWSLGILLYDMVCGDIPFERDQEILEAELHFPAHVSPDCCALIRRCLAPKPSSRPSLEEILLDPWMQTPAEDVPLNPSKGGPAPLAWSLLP
# Sequence of PIM-1 (P11309 whole entry, species assumed): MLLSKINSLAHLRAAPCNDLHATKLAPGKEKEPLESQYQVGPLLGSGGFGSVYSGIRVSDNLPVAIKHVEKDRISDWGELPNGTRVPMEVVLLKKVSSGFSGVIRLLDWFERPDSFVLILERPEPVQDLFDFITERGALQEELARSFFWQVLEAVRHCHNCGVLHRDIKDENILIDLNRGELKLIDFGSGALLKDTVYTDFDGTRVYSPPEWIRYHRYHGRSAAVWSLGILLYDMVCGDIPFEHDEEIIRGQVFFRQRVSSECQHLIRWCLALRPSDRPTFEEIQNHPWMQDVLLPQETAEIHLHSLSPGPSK
"IC50 (PIM-1; 35 μM ATP, 0.25 nM PIM-1) [nM]","IC50 [1, 2] [nM]",IC50 (recombinant rat PIM-3; read-out: PIM-3 IC50) [nM],"IC50 [1, 3] [nM]",IC50 (recombinant rat PIM-3; PIM-3 IC50 (nM)) [nM],SMILES,IC50 ([1]; read-out: PIM-2 IC50) [nM],IC50 (PIM-1) [nM]
23,2470,33,–,–,"c1cc(O[C@@H]2CCNC2)c2nc(-c3nnc4ccccn34)ccc2c1 [Example 11, (R)-2-([1,2,4]Triazolo[4,3-a]pyridin-3-yl)-8-(pyrrolidin-3-yloxy)quinoline]",–,–
1,244,3,–,–,"Cc1ccn2c(-c3ccc4cccc(OC5CCNCCC5F)c4n3)nnc2c1 (single isomer, unassigned) [Example 92, cis-8-5-fluoroazepan-4-yloxy)-2-(7-methyl-[1,2,4]triazolo[4,3-a]pyridin-3-yl)quinoline]",–,–
70,10000,222,–,–,"CON(C)C(=O)[C@@H]1C[C@@H](Oc2cccc3ccc(-c4nnc5ccccn45)nc23)CCN1 [Example 55, (2S,4S)-4-(2-([1,2,4]triazolo[4,3-a]pyridin-3-yl)quinolin-8-yloxy)-N-methoxy-N-methylpiperidine-2-carboxamide dihydrochloride]",–,–
12,1280,46,–,–,"NC(=O)N1CCC(Oc2cccc3ccc(-c4nnc5ccccn45)nc23)CC1 [Example 40, 4-(2-([1,2,4]triazolo[4,3-a]pyridin-3-yl)quinolin-8-yloxy)piperidine-1-carboxamide]",–,–
0.7,–,–,147,4,"FC1CCNCCC1Oc1cccc2ccc(-c3nnc4ccccn34)nc12 (single isomer, unassigned) [Example 48, 2-([1,2,4]triazolo[4,3-a]pyridin-3-yl)-8-(5-fluoroazepan-4-yloxy)quinoline dihydrochloride]",–,–
0.8,39,0.9,–,–,"Fc1cc(OC2CCNCCC2F)c2nc(-c3nnc4ccccn34)ccc2c1 (single isomer, unassigned) [Example 91, trans-2-([1,2,4]triazolo[4,3-a]pyridin-3-yl)-6-fluoro-8-5-fluoroazepan-4-yloxy)quinoline]",–,–
167,–,248,–,–,"COC(=O)[C@@H]1C[C@H](Oc2cccc3ccc(-c4nnc5ccccn45)nc23)CN1 [Example 87, (2S,4S)-methyl 4-(2-([1,2,4]triazolo[4,3-a]pyridin-3-yl)quinolin-8-yloxy)pyrrolidine-2-carboxylate]",–,–
30.5,520,16.1,–,–,"Fc1cc(OC2CCNCCC2F)c2nc(-c3nnc4ccccn34)ccc2c1 (single isomer, unassigned) [Example 121, 2-([1,2,4]triazolo[4,3-a]pyridin-3-yl)-6-fluoro-8-(trans-5-fluoroazepan-4-yloxy)quinoline]",–,–
11,959,10.9,–,–,"Fc1cc(OC2CCNCCC2F)c2nc(-c3nnc4ccccn34)ccc2c1 (single isomer, unassigned) [Example 120, 2-([1,2,4]triazolo[4,3-a]pyridin-3-yl)-6-fluoro-8-((cis)-5-fluoroazepan-4-yloxy)quinoline]",–,–
10,1360,48,–,–,"CCCC(Oc1cccc2ccc(-c3nnc4ccccn34)nc12)[C@H](CC)CN (stereo partly drawn) [Example 35, (2R)-3-(2-([1,2,4]triazolo[4,3-a]pyridin-3-yl)quinolin-8-yloxy)-2-ethylhexan-1-amine]",–,–
12,–,–,290,8,"FC1CCNCCC1Oc1cccc2ccc(-c3nnc4ccccn34)nc12 (single isomer, unassigned) [Example 50, 2-([1,2,4]triazolo[4,3-a]pyridin-3-yl)-8-(5-fluoroazepan-4-yloxy)quinoline dihydrochloride]",–,–
13,1350,51,–,–,"CCCC(Oc1cccc2ccc(-c3nnc4ccccn34)nc12)[C@@H](CC)CN (stereo partly drawn) [Example 34, (2S)-3-(2-([1,2,4]triazolo[4,3-a]pyridin-3-yl)quinolin-8-yloxy)-2-ethylhexan-1-amine]",–,–
5,279,19,–,–,"CC[C@H](CN)C(C)Oc1cccc2ccc(-c3nnc4ccccn34)nc12 (stereo partly drawn) [Example 33, (2R)-3-(2-([1,2,4]triazolo[4,3-a]pyridin-3-yl)quinolin-8-yloxy)-2-ethylbutan-1-amine]",–,–
22,6020,105,–,–,"c1cc(N[C@H]2CCNC2)c2nc(-c3nnc4ccccn34)ccc2c1 [Example 4, (S)-2-([1,2,4]Triazolo[4,3-a]pyridin-3-yl)-N-(pyrrolidin-3-yl)quinolin-8-amine]",–,–
4,399,17,–,–,"CC[C@@H](CN)C(C)Oc1cccc2ccc(-c3nnc4ccccn34)nc12 (stereo partly drawn) [Example 32, (2S)-3-(2-([1,2,4]triazolo[4,3-a]pyridin-3-yl)quinolin-8-yloxy)-2-ethylbutan-1-amine]",–,–
132,10000,728,–,–,"c1cc(OC[C@@H]2CCCN2)c2nc(-c3nnc4ccccn34)ccc2c1 [Example 61, (S)-2-([1,2,4]triazolo[4,3-a]pyridin-3-yl)-8-(pyrrolidin-2-ylmethoxy)quinoline]",–,–
0.4,131,2,–,–,"Fc1cc(OC2CCNCCC2F)c2nc(-c3nnc4ccccn34)ccc2c1 (single isomer, unassigned) [Example 90, cis-2-([1,2,4]triazolo[4,3-a]pyridin-3-yl)-6-fluoro-8-5-fluoroazepan-4-yloxy)quinoline]",–,–
55,2870,98,–,–,"Fc1ccc2nnc(-c3ccc4cccc(O[C@H]5CCNC[C@H]5F)c4n3)n2c1 (relative stereo) [Example 59, 2-(6-fluoro-[1,2,4]triazolo[4,3-a]pyridin-3-yl)-8-((cis)-3-fluoropiperidin-4-yloxy)quinoline]",–,–
32,–,–,1170,41,"FC1CCNCCC1Oc1cccc2ccc(-c3nnc4ccccn34)nc12 (single isomer, unassigned) [Example 47, 2-([1,2,4]triazolo[4,3-a]pyridin-3-yl)-8-(-5-fluoroazepan-4-yloxy)quinoline dihydrochloride]",–,–
–,514,13,–,–,"NCCCOc1cccc2ccc(-c3nnc4ccccn34)nc12 [Example 10, 3-(2-([1,2,4]Triazolo[4,3-a]pyridin-3-yl)quinolin-8-yloxy)propan-1-amine]",–,–
–,323,13,–,–,"CCNCC(C)(C)COc1cccc2ccc(-c3nnc4ccccn34)nc12 [Example 27, 3-(2-([1,2,4]triazolo[4,3-a]pyridin-3-yl)quinolin-8-yloxy)-N-ethyl-2,2-dimethylpropan-1-amine di-trifluoroacetate]",–,–
–,77,4,–,–,"CC(C)(CO)COc1cccc2ccc(-c3nnc4ccccn34)nc12 [Example 24, 3-(2-([1,2,4]triazolo[4,3-a]pyridin-3-yl)quinolin-8-yloxy)-2,2-dimethylpropan-1-ol]",–,–
–,167,8.8,–,–,"CC(C)(COc1cccc2ccc(-c3nnc4ccccn34)nc12)[C@@H](O)CO [Example 113, (R)-4-(2-([1,2,4]triazolo[4,3-a]pyridin-3-yl)quinolin-8-yloxy)-3,3-dimethylbutane-1,2-diol]",–,–

SMILES,"IC50 (PIM-1; 35 μM ATP, 0.25 nM PIM-1) [nM]","IC50 [1, 2] [nM]",IC50 (recombinant rat PIM-3; read-out: PIM-3 IC50) [nM],"IC50 [1, 3] [nM]",IC50 (recombinant rat PIM-3; PIM-3 IC50 (nM)) [nM],IC50 ([1]; read-out: PIM-2 IC50) [nM],IC50 (PIM-1) [nM]
"c1cc(OC2CC3CCC(C2)N3)c2nc(-c3nnc4ccccn34)ccc2c1 (stereo not shown) [Example 29, 8-(8-azabicyclo[3.2.1]octan-3-yloxy)-2-([1,2,4]triazolo[4,3-a]pyridin-3-yl)quinoline]",5,585,30,–,–,–,–
"FC1CNCCCC1Oc1cccc2ccc(-c3nnc4ccccn34)nc12 (stereo not shown) [Example 51, 2-([1,2,4]triazolo[4,3-a]pyridin-3-yl)-8-(3-fluoroazepan-4-yloxy)quinoline dihydrochloride]",3,–,10,–,–,406,–
"CC(C)COc1cccc2ccc(-c3nnc4cc(CN)ccn34)nc12 [Example 20, (3-(8-isobutoxyquinolin-2-yl)-[1,2,4]triazolo[4,3-a]pyridin-7-yl)methanamine]",2,51,5,–,–,–,–
"c1cc(OC2CCNCC2)c2nc(-c3nnc4ccccn34)ccc2c1 [Example 9, 2-([1,2,4]triazolo[4,3-a]pyridin-3-yl)-8-(piperidin-4-yloxy)quinoline di-trifluoroacetate]",4,–,17,–,–,570,–
"CC(C)(CN)COc1cccc2ccc(-c3nnc4ccc(C5CC5)cn34)nc12 [Example 64, 3-(2-(6-cyclopropyl-[1,2,4]triazolo[4,3-a]pyridin-3-yl)quinolin-8-yloxy)-2,2-dimethylpropan-1-amine dihydrochloride]",–,–,5,–,–,323,0.64
"OC[C@@H]1C[C@@H](Oc2cccc3ccc(-c4nnc5ccccn45)nc23)CCN1 [Example 56, ((2S,4S)-4-(2-([1,2,4]triazolo[4,3-a]pyridin-3-yl)quinolin-8-yloxy)piperidin-2-yl)methanol dihydrochloride]",–,427,24,–,–,–,9
